Test results from patent publication US20230330064A1, “TYROSINE, TRYPTOPHAN AND PHENYLALANINE AS mTOR AGONISTS MEDIATING PROTEASOME DYNAMICS, COMPOSITIONS, METHODS AND USES THEREOF IN THERAPY, AND PROGNOSTIC METHODS FOR DRUG-RESISTANCE” (Technion Research & Development Foundation Limited, priority 2020, published 2023).

What was measured:
[1] = system: 26S proteasome; experiment: Proteasome subcellular localization in cultured cells (immunofluorescence, western blot of nuclear fractions); type: cell-based; conditions: for starvation-induced proteasome translocation from the nucleus to the cytosol: substance added to amino acid starvation medium, 8 h; for proteasome localization without exogenous starvation: non-stressed cells, complete medium
Procedure: (§1) Cells were seeded on glass cover slips for 36 h. Following the indicated treatments, they were fixed with 4% PFA for 15 min, washed with (phosphate-buffered saline) PBS and incubated in PBS containing 10% goat serum for 1h at room temperature, followed by 2 h incubation with the indicated primary antibody. Following extensive wash with PBS, the fixed cells were incubated with the relevant secondary antibody for 1 h, washed and mounted. Images were acquired using Zeiss LSM 700 confocal microscope (Zeiss, Oberkochen, Germany).
The proteasome subunits α6, β1, and PSMD1 were visualized via indirect immunofluorescence, using primary and secondary antibodies listed under Key Resources Table. To observe the proteasome in live cells, we expressed the cDNAs of the β4, Rpn2, Rpn6, and Rpn13 proteasome subunits C-terminally fused with GFP. Photoconversion of proteasome-fused Dendra2 was carried out as previously described (McKinney et al., 2009 Nat Methods. 131-133).
Cells were incubated for 20 min in fractionation buffer [20 mM HEPES pH 7.3, 10 mM KCl, 5 mM ATP, 5 mM MgCl2, and protease inhibitor cocktail (Roche)], followed by the addition of NP-40 (to 0.1%). They were then mixed thoroughly and centrifuged at 1,000×g for 5 min. The supernatant was collected as cytosolic fraction, and the pellet (nuclei) was washed twice with PBS. To dissolve the nuclear pellet, fractionation buffer supplemented with 0.5% sodium deoxycholate was added followed by sonication.
(§2) Cells were washed twice with ice cold PBS and scraped into lysis buffer (50 mM Tris-HCl, pH 7.4, 130 mM NaCl, 0.5% NP-40) supplemented with freshly added protease inhibitor cocktail, 5 mM ATP, 10 mM iodoacetamide, and 5 mM N-ethyl maleimide. Protein concentration was measured by the BCA assay according to the manufacturer's instructions (Pierce, Rockford, IL). 30 μg of cellular protein were resolved via SDS-PAGE, transferred to a nitrocellulose membrane and immunoblotted with the appropriate antibody.

[2] = system: tumors; experiment: Tumor model in mice, YWF versus various concentrations of F; type: in vivo; conditions: various concentrations up to 45 mM
Procedure: The anti-tumorigenic effect of the indicated treatments was examined in vivo, using a tumor model in mice.
The inventors next aimed to assess the anti-tumorigenic effect of the above treatments in vivo, using a tumor model in mice. Following tumor formation, each group was treated with a different treatment, and the size of tumors was eventually compared relative to the control group (QLR).

[3] = system: cancer cells; experiment: Cell viability of stressed (starved) and non-stressed cancer cells, YWF versus 45 mM F or W
Procedure: Since tumor cells are inherently stressed—due to high metabolic demands and poor perfusion of nutrients and oxygen, starved cells in culture were used in order to simulate the effect of the different treatments. Similarly, to simulation of the effect of each treatment on “normal” tissues in vivo—which are not stressed—the same amino acid(s) were added to non-starved cells in culture.

[4] = target: proteasome subunit beta type-5 (PSMB5) (Homo sapiens, UniProt P20618+P28074); conditions: cited from earlier work
[5] = target: L-type amino acid transporter 1 (LAT-1) (Homo sapiens, UniProt Q01650); conditions: cited from earlier work
[6] = system: human bladder cancer T24 cell line; conditions: cited from earlier work
[7] = system: tumor; conditions: in vivo; cited from earlier work
[8] = target: T1, exportin-1 (Homo sapiens, UniProt O14980); experiment: Nuclear export of exportin-1 substrates (p65, APC, NES-GFP) in HeLa cells; type: cell-based; conditions: 8 h
T1 construct: endogenous in cells; host or cells: HeLa
Procedure: FIG. 4G. HeLa cells were incubated under the indicated conditions, and the β4 subunit of the proteasome as well as the p65 subunit of NF-κB—which is a CRM1 substrate—were visualized.
FIG. 4H. HeLa cells were incubated under the indicated conditions, and the β4 subunit of the proteasome as well as the CRM1 substrate APC (adenomatous polyposis coli) were visualized.
FIG. 4I. HeLa cells infected with GFP fused to a nuclear export signal (NES) were incubated for 8h under the indicated conditions. The GFP was visualized.
as §1

[9] = system: cellular proteins; experiment: Degradation of radiolabeled cellular proteins; type: cell-based; conditions: starved cells
Procedure: Cells were labeled with […] methionine and cysteine (20 μCi/ml) for 16 h. This was followed extensive washing and further incubation in a medium containing 2 mM of the two unlabeled amino acids for 8 h. Degradation rates were assessed by determining the release of labeled amino acids to the incubation medium relative to the radioactivity remained in the cellular proteins (using Trichloroacetic acid precipitation to separate between the two) (Gropper et al., 1991, JPEN J Parenter Enteral Nutr 15, 48-53.).

[10] = system: ubiquitin adducts; experiment: Western blot for ubiquitin adducts; type: cell-based; conditions: starved cells
Procedure: FIG. 5E. Western blot for ubiquitin adducts of extracts of cells treated as indicated. Intensities relative to control are presented.
as §2

[11] = system: proteasome; experiment: Live imaging of proteasome activity probe Me4BodipyFL-Ahx3Leu3VS in cells; type: cell-based; conditions: added to the starvation medium
Procedure: Live cell proteasome activity was followed as previously described (Berkers et al., 2007, Mol Pharm; 4(5):739-48.). In brief, Me4BodipyFL-Ahx3Leu3VS was added to the medium to a final concentration of 1 μM. Following incubation for 15 min, the cells were visualized by a Zeiss LSM 700 confocal microscope. In vitro proteasome activity assay was carried out as previously described (Braten et al., 2016). In brief, cellular fractions were incubated at 37° C. for 30 min with 5 μM Suc-LLVY-AMC (Succinyl-Lu-Leu-Val-Tyr-amido-4-methylcoumarin) in a reaction buffer (40 mM Tris-HCl pH 7.2, 2 mM DTT, 5 mM MgCl2, 10 mM creatine phosphate, 0.1 mg/ml creatine phosphate kinase, 5 mM ATP). Reactions were stopped by adding 1% SDS, and fluorescence was measured at 360 nm/460 nm (ex/em).

[12] = system: cellular proteins; experiment: Proteomic analysis of cellular protein levels; type: cell-based, human; conditions: amino acid starvation
Procedure: 2-3 mg of cell extract protein in 8 M Urea and 100 mM ammonium bicarbonate, were incubated with DTT (2.8 mM; 30 min at 60° C.), modified with iodoacetamide (8.8 mM; 30 min at room temperature in the dark), and digested (overnight at 37° C.) with modified trypsin (Promega; 1:50 enzyme-to-substrate ratio) in 2 M Urea and 25 mM ammonium bicarbonate. Additional second trypsinization was carried out for 4 hours. The tryptic peptides were desalted using Sep-Pak C18 (Waters) and dried. 10 μg of protein were used for proteome analysis as described under Mass spectrometry.
Tryptic peptides were analyzed by LC-MS/MS using a Q Exactive plus mass spectrometer (Thermo Fisher Scientific) fitted with a capillary HPLC (easy nLC 1000, Thermo). […]
The mass spectrometry raw data were analyzed by the MaxQuant software (version 1.4.1.2, http://www.maxquant.org) for peak picking and quantification. […] The MaxQuant software was used for label-free semi-quantitative analysis [based on extracted ion currents (XICs) of peptides], enabling quantification from each LC/MS run for each peptide identified in any of the experiments. In samples that were SILAC-labeled, quantification was also carried out using the MaxQuant software. […]

[13] = Amino acids level measurement (LC-MS); type: cell-based; conditions: Torin1-treated cells
Procedure: Metabolic analysis was carried out as previously described (MacKay et al., 2015). Briefly, cells were rapidly washed 3 times with ice-cold PBS and extracted with an aqueous solution of 50% Methanol, and 30% Acetonitrile. Samples were centrifuged at 16,000×g for 10 min at 4° C., and the supernatants were analyzed using HPLC-MS (Q-Exactive Orbitrap Mass Spectrometer (Thermo Scientific) coupled to Thermo Scientific UltiMate 3000 HPLC system). The HPLC setup consisted of a ZIC-pHILIC column (SeQuant, 150×2.1 mm, 5 μm, Merck) with a ZIC-pHILIC guard column (SeQuant, 20×2.1 mm). The aqueous mobile phase solvent was 20 mM ammonium carbonate adjusted to pH 9.4 with 0.1% ammonium hydroxide. The organic mobile phase was acetonitrile. […] All metabolites were detected across a mass range of 75-1,000 m/z using the Q-Exactive mass spectrometer at a resolution of 35,000 (at 200 m/z) with electrospray ionization and polarity switching mode. […] The peak areas of different Amino Acids were determined using Thermo TraceFinder software through which metabolites were identified by the exact mass of the singly charged ion and by known retention time on the HPLC column. Commercially available standard compounds had been analyzed before to determine ion masses and retention times on the ZIC-pHILIC column. Protein quantitation based on the Lowry method was performed for normalization.

T1 sequence (O14980 whole entry): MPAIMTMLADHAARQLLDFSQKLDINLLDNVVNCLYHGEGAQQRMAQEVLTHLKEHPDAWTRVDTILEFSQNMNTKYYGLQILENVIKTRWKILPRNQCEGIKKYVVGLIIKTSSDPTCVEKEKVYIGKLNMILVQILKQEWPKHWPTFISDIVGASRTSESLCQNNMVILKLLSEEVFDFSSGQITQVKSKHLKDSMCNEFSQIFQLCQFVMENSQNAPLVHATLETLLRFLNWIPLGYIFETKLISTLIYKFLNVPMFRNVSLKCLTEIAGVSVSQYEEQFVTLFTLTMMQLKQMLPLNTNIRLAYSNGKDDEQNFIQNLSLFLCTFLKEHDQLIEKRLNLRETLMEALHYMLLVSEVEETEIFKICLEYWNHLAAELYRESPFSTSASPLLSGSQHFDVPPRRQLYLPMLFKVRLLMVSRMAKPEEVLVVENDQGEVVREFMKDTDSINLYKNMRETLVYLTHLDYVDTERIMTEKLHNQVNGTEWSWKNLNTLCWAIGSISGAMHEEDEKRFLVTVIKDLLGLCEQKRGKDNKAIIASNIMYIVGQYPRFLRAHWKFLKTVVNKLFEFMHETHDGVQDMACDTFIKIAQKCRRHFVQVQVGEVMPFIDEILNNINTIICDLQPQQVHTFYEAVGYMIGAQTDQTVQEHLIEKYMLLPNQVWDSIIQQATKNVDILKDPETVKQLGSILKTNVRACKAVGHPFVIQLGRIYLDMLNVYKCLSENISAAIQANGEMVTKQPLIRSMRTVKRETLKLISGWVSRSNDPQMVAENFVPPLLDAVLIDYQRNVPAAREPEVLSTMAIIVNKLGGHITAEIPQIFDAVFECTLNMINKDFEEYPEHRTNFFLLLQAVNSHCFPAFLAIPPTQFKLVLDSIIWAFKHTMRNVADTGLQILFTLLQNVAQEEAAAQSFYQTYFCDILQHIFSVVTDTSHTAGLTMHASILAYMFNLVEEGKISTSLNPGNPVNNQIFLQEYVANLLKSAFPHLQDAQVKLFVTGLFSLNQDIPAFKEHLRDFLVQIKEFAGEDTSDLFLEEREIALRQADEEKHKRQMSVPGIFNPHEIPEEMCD
Chain of L-type amino acid transporter 1 (LAT-1) (Q01650 whole entry): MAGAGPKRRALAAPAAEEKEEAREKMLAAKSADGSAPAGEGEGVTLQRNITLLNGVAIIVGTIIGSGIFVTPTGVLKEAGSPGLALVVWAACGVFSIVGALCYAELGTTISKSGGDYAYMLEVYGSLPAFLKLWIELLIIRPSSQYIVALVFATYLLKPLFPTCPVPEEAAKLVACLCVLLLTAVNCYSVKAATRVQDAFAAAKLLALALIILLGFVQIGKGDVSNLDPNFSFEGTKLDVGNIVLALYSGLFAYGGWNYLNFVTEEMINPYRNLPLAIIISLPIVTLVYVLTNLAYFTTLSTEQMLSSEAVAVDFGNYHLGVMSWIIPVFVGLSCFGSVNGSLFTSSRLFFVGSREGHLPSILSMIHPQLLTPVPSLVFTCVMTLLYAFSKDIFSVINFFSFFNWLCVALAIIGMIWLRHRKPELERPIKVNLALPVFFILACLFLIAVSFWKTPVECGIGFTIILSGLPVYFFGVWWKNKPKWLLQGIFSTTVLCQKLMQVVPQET
Chain of L-type amino acid transporter 1 (LAT-1) (P08195 102-630 partner): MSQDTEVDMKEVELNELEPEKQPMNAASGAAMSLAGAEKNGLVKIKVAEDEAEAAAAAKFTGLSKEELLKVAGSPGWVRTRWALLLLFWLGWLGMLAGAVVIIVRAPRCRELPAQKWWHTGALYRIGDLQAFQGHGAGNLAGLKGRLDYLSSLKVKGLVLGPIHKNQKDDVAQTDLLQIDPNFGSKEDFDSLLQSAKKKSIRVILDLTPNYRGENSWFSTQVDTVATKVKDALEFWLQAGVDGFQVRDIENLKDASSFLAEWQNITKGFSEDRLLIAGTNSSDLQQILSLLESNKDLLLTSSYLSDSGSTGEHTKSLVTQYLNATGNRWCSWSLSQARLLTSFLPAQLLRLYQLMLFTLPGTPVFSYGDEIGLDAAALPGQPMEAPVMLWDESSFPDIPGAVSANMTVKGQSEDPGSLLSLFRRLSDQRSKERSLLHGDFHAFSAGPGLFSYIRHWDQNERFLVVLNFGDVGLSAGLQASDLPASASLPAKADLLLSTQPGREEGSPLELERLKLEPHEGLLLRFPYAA

With `N[C@@H](Cc1ccccc1)C(=O)O` [Phe, Phenylalanine] the “starvation-induced proteasome translocation from the nucleus to the cytosol” value [1] was “significant effect”, the “benefit on tumor growth relative to control group (QLR)” value [2] was “did not result in any benefit” and the “elimination of stressed cancerous cells in culture” value [3] was “clearly inferior to the mixture of YWF”.
In the case of `Cn1cnc(N)c2ncnc1-2` [3-MA, 3-methyl adenine], the “proteasome localization without exogenous starvation” value [1] is reported as “induced the same effect”.
With Tunicamycin the “proteasome localization without exogenous starvation” value [1] was “inducing proteasome nuclear export”.
With `N[C@@H](Cc1c[nH]c2ccccc12)C(=O)O` [Trp, Tryptophan] the “starvation-induced proteasome translocation from the nucleus to the cytosol” value [1] was “significant effect”.
With Ivermectin the “proteasome localization without exogenous starvation” value [1] was “cytosolic accumulation”.
In the case of `CCC(=O)N1CCN(c2ccc(-n3c(=O)ccc4cnc5ccc(-c6cnc7ccccc7c6)cc5c43)cc2C(F)(F)F)CC1` [Torin1], the “proteasome localization without exogenous starvation” value [1] is reported as “induces nuclear export of both 20S and 19S sub-complexes”.
For `C[C@@H]1C[C@@H]([C@H](O)CC2CC(=O)NC(=O)C2)C(=O)[C@@H](C)C1` [cycloheximide], the “reappearance of the proteasome in the nucleus after amino acid replenishment” value ([1]; 8 h starvation, then replenishment in presence of the substance) was “does not prevent the reappearance of the proteasome in the nucleus”.
In the case of `CC(C)C[C@H](NC(=O)CNC(=O)c1cc(Cl)ccc1Cl)B(O)O` [Ixazomib, N^2-(2,5-Dichlorobenzoyl)-N-[(1R)-1-(dihydroxyboryl)-3-methylbutyl]glycinamide], the “mode of PSMB5 inhibition” value [4] is listed as “selectively and reversibly inhibits”.
In the case of `CC(C)C[C@H](NC(=O)[C@H](CCc1ccccc1)NC(=O)CN1CCOCC1)C(=O)N[C@@H](Cc1ccccc1)C(=O)N[C@@H](CC(C)C)C(=O)[C@@]1(C)CO1` [carfilzomib, (2S)-4-Methyl-N-[(2S)-1-[[(2S)-4-methyl-1-[(2R)-2-methyloxiran-2-yl]-1-oxopentan-2-yl]amino]-1-oxo-3-phenylpropan-2-yl]-2-[[(2S)-2-[(2-morpholin-4-ylacetyl)amino]-4-phenylbutanoyl]amino]pentanamide], the “mode of PSMB5 inhibition” value [4] is listed as “irreversibly”.
In the case of `N[C@@H](Cc1ccc(O)cc1)C(=O)O` [Tyr, 4-hydroxyphenylalanine], the “starvation-induced proteasome translocation from the nucleus to the cytosol” value [1] is reported as “significant effect”.
For `N[C@@H](Cc1cccc(Oc2ccc3ccccc3c2)c1)C(=O)O` [3-(2-naphthyloxy)-L-phenylalanine], the “intracellular 14C-Leucine” value [5] is given as “reduction”, the “T24 cell line proliferation” value [6] is given as “inhibition” and the tumor growth [7] is given as “inhibition of tumor growth”.
For `CCC(=C/[C@H](C)C/C=C/C(C)=C/[C@@H](C)C(=O)[C@@H](C)[C@H](O)[C@@H](C)C/C(C)=C/C(=O)O)/C=C/[C@@H]1OC(=O)C=C[C@@H]1C` [LMB, Leptomycin B], the “proteasome distribution in cells lacking NUP93” value ([1]; NUP93 silenced, starvation) was “neither YWF nor LMB had a significant effect on its distribution”, the “proteasome localization without exogenous starvation” value [1] was “nuclear accumulation of the proteasome” and the “starvation-induced proteasome translocation from the nucleus to the cytosol” value [1] was “inhibition of the translocation”. The “cellular distribution of GFP fused to nuclear export signal (NES)” value [8] was “leads to nuclear accumulation”, the “starvation-induced stimulation of protein breakdown” value [9] was “inhibition of starvation-induced stimulation of protein breakdown” and the “degradation and depletion of ubiquitin adducts” value [10] was “inhibits degradation and depletion of ubiquitin adducts”. For the same molecule, the “migration of proteasomal activity from the nucleus” value [11] was “inhibits the migration of proteasomal activity from the nucleus”, the “starvation-induced reduction in the level of ~900 proteins” value [12] was “prevented” and the “gain in amino acids produced by Torin1” value [13] was “significantly inhibits the gain in amino acids”.
